Measurements from patent publication US20170190705A1, “Compositions and Methods for Inhibiting BMP” (THE BRIGHAM AND WOMAN'S HOSPITAL, INC., priority 2014, published 2017).

Legend:
Format in all cases: biochemical
[1] = molecular target: T1, TSSK2 (Homo sapiens, UniProt Q96PF2); assay: Kinome profiling TSSK2; details: read-out: Inhibitory activity TSSK2; for inhibition at 0.1 µM: 100 nM
T1 sequence (Q96PF2 1-358): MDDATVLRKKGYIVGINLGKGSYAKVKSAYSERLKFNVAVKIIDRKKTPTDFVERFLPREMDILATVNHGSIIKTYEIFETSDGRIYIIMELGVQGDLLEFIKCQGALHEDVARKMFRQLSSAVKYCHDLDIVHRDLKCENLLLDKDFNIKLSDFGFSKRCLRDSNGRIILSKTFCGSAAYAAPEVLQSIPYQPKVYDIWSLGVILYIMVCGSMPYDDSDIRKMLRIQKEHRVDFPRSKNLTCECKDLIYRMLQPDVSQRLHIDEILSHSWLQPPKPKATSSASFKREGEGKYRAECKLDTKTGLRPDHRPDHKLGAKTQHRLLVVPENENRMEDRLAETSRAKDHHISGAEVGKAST
Experimental: (§1) . The kinome-wide selectivity was determined following the methods previously reported by Mohedas et al., ACS Chem Biol 2013, 8, 1291-1302 and Sanvitale et al., PLoS One 2013, 8, e62721.

[2] = molecular target: T2, DYRK2 (Homo sapiens, UniProt Q92630); assay: Kinome profiling DYRK2; details: read-out: Inhibitory activity DYRK2; for inhibition at 0.1 µM: 100 nM
T2 sequence (Q92630 1-601): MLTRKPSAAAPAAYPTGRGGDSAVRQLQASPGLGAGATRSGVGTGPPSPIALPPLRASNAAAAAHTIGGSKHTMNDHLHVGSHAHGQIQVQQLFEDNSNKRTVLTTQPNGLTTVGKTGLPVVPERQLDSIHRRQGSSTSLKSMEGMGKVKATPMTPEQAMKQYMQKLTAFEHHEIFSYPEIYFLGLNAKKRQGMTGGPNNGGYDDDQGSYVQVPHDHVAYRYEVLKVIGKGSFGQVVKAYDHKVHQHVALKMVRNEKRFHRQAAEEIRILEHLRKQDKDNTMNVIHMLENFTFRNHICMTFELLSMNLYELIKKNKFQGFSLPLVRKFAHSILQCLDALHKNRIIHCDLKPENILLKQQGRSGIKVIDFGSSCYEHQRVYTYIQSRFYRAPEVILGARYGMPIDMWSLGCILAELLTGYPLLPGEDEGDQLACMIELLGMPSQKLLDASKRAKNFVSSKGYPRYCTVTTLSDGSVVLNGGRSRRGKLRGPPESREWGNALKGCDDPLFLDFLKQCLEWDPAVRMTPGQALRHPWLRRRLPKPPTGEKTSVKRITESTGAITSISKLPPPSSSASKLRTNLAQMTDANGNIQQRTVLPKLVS
Experimental: as §1

[3] = molecular target: PHKγ1 (Homo sapiens, UniProt Q16816); assay: Kinome profiling PHKγ1; details: read-out: Inhibitory activity PHKγ1; for inhibition at 0.1 µM: 100 nM
Chain of PHKγ1 (Q16816 whole entry): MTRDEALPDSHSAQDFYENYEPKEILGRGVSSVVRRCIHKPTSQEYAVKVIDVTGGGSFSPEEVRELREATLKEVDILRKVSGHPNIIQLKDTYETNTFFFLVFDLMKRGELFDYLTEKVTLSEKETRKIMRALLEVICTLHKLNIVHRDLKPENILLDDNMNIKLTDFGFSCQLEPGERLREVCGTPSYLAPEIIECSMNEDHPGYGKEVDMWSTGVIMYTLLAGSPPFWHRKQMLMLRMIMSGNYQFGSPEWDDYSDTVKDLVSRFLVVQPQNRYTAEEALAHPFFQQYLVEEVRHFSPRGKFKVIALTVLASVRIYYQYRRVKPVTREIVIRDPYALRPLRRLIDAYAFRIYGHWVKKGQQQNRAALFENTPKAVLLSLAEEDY
Experimental: as §1

[4] = molecular target: T3, TNK1 (Homo sapiens, UniProt Q13470); assay: Kinome profiling TNK1; details: read-out: Inhibitory activity TNK1; for inhibition at 0.1 µM: 100 nM
T3 sequence (Q13470 1-666): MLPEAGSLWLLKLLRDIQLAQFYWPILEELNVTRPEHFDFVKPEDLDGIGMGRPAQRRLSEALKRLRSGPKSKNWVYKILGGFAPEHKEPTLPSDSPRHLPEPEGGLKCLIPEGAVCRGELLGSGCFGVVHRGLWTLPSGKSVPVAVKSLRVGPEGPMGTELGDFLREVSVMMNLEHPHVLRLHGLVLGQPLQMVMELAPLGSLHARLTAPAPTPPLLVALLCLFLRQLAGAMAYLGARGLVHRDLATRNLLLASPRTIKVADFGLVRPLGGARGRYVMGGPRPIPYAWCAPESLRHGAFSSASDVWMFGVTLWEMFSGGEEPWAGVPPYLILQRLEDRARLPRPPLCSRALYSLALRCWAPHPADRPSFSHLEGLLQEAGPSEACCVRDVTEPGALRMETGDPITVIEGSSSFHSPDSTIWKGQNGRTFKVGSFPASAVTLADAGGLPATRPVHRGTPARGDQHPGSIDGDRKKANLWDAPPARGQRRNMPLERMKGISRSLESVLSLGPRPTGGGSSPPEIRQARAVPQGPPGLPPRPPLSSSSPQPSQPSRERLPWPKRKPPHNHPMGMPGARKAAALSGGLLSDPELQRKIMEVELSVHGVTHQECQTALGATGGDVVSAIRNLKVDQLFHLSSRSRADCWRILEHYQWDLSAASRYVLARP
Experimental: as §1

[5] = molecular target: P38α (Homo sapiens, UniProt Q16539); assay: Kinome profiling P38α; details: read-out: Inhibitory activity P38α; for inhibition at 0.1 µM: 100 nM
Chain of P38α (Q16539 whole entry): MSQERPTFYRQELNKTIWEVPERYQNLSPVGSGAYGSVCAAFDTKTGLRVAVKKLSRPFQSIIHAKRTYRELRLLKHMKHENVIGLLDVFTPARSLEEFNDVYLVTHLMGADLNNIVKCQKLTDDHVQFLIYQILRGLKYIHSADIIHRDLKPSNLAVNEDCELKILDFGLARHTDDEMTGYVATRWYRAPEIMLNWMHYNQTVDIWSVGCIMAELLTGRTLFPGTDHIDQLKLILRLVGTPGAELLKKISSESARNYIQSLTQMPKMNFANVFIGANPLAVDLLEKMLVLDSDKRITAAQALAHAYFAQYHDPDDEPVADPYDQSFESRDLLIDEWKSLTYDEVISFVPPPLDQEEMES
Experimental: as §1

[6] = molecular target: EPH-A4 (Homo sapiens, UniProt P54764); assay: Kinome profiling EPH-A4; details: read-out: Inhibitory activity EPH-A4; for inhibition at 0.1 µM: 100 nM
Chain of EPH-A4 (P54764 20-986): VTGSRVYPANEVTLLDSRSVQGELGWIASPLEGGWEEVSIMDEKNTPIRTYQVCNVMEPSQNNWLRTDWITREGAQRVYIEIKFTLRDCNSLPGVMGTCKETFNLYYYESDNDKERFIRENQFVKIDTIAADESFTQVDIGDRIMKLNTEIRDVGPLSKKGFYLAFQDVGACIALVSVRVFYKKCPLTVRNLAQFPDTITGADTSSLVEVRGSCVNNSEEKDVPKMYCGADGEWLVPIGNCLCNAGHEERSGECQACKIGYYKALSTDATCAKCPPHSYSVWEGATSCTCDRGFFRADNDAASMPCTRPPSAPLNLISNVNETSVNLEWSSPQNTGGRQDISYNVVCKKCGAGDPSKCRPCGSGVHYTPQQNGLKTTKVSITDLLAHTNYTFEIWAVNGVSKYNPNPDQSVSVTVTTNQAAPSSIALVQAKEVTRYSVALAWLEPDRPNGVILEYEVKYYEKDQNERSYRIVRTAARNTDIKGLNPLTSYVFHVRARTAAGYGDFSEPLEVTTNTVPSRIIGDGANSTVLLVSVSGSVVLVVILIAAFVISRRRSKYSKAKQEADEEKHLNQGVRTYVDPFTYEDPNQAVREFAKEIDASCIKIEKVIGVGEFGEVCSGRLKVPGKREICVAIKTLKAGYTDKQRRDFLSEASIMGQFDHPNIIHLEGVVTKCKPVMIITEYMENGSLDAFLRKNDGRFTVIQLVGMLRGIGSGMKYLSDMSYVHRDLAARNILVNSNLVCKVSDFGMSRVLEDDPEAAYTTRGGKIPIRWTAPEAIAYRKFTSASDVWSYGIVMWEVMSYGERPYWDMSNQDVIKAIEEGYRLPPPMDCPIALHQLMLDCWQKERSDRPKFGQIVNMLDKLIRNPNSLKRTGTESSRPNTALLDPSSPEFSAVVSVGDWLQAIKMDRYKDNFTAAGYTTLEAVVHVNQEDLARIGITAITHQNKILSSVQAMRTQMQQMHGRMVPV
Experimental: as §1

[7] = molecular target: CDK2/cyclinA (Homo sapiens, UniProt P24941); assay: Kinome profiling CDK2/cyclinA; details: read-out: Inhibitory activity CDK2/cyclinA; for inhibition at 0.1 µM: 100 nM
Experimental: as §1

[8] = molecular target: BRK (Homo sapiens, UniProt Q13882); assay: Kinome profiling BRK; details: read-out: Inhibitory activity BRK; for inhibition at 0.1 µM: 100 nM
Chain of BRK (Q13882 whole entry): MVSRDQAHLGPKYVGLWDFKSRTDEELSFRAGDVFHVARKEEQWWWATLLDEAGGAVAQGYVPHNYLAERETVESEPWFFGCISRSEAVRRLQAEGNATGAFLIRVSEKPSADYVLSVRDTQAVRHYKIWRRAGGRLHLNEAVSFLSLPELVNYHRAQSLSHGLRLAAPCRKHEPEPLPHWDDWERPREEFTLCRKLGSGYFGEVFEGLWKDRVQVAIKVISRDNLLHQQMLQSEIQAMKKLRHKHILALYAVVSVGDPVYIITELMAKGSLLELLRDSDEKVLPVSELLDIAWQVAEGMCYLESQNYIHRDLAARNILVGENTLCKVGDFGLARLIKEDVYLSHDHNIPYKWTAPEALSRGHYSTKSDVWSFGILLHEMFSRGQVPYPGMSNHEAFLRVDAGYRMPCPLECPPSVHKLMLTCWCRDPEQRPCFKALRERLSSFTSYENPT
Experimental: as §1

[9] = molecular target: FMS (Homo sapiens, UniProt P07333); assay: Kinome profiling FMS; details: read-out: Inhibitory activity FMS; for inhibition at 0.1 µM: 100 nM
Chain of FMS (P07333 20-972): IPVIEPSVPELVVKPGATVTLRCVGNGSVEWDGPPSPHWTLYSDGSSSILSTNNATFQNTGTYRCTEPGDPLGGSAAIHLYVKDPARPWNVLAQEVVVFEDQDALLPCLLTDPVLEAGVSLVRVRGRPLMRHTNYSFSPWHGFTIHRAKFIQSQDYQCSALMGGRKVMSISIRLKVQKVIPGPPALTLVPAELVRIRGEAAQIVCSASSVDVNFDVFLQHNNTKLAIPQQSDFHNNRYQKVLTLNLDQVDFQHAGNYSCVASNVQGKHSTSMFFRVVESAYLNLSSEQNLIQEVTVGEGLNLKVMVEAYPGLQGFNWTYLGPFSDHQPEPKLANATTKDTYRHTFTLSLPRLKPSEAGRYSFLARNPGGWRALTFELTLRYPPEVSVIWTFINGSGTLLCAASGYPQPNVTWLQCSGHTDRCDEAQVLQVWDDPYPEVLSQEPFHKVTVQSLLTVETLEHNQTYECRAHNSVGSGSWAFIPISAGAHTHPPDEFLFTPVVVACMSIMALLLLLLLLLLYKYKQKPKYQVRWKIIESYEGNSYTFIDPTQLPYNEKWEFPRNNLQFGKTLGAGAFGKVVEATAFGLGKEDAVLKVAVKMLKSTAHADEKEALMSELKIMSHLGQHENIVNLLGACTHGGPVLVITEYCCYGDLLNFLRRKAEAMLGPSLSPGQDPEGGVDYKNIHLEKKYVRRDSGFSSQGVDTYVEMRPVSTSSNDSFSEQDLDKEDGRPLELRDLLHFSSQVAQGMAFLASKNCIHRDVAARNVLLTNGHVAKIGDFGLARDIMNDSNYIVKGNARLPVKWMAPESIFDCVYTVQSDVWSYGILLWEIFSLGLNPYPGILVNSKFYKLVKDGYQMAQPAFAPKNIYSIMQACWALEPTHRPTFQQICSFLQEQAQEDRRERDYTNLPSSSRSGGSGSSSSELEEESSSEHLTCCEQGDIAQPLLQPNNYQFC
Experimental: as §1

[10] = molecular target: PLK1 (Homo sapiens, UniProt P53350); assay: Kinome profiling PLK1; details: read-out: Inhibitory activity PLK1; for inhibition at 0.1 µM: 100 nM
Chain of PLK1 (P53350 whole entry): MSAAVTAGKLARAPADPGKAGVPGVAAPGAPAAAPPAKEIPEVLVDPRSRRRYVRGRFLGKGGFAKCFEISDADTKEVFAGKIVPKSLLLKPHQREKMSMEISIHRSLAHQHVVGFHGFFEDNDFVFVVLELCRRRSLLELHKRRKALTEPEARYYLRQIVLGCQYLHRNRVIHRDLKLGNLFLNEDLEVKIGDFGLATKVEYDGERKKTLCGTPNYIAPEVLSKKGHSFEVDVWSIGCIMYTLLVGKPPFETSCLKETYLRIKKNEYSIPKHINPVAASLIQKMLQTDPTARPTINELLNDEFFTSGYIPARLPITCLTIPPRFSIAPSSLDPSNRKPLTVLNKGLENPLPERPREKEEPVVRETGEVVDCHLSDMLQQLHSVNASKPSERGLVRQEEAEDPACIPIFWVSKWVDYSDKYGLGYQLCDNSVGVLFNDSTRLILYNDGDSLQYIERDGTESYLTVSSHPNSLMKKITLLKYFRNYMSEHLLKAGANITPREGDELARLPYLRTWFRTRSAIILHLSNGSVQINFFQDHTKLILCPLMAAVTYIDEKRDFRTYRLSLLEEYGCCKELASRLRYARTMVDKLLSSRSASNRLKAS
Experimental: as §1

SMILES	inhibition at 0.1 µM [1]	inhibition at 1 µM [1]	inhibition at 0.1 µM [2]	inhibition at 1 µM [2]	inhibition at 0.1 µM [3]	inhibition at 1 µM [3]	inhibition at 0.1 µM [4]	inhibition at 1 µM [4]	inhibition at 0.1 µM [5]	inhibition at 1 µM [5]	inhibition at 0.1 µM [6]	inhibition at 1 µM [6]	inhibition at 0.1 µM [7]	inhibition at 1 µM [7]	inhibition at 0.1 µM [8]	inhibition at 1 µM [8]	inhibition at 0.1 µM [9]	inhibition at 1 µM [9]	inhibition at 0.1 µM [10]	inhibition at 1 µM [10]
COc1cc(-c2cc(-c3ccc(N4CCNCC4)cc3)cnc2C)cc(OC)c1OC [Compound 10, 1-(4-(6-methyl-5-(3,4,5-trimethoxyphenyl)pyridin-3-yl)phenyl)piperazine]	4%	4%	2%	1%	3%	3%	5%	2%	-2%	1%	7%	5%	4%	1%	7%	36%	5%	33%	4%	3%
COc1cc(-c2cc(-c3ccc(N4CCNCC4)cc3)cnc2N)cc(OC)c1OC [Compound 15, 5-(4-(piperazin-1-yl)phenyl)-3-(3,4,5-trimethoxyphenyl)pyridin-2-amine]	1%	1%	2%	0%	3%	4%	2%	16%	4%	9%	-1%	45%	1%	2%	43%	92%	23%	65%	3%	1%
